According to the NIST ThermoML archive (doi:10.1016/j.fluid.2007.07.066):
Numbers after ± are expanded uncertainties.

Assay: wn = mass fraction of the nth substance listed
Conditions: 101 kPa, Liquid; for speed of sound: Sing-around technique in a fixed-path interferometer

CCCO [propan-1-ol] + O
Conditions | mass density, 283.15 K [kg/m3] | mass density, 288.15 K [kg/m3] | mass density, 293.15 K [kg/m3] | mass density, 298.15 K [kg/m3] | mass density, 303.15 K [kg/m3] | speed of sound, 283.15 K [m/s] | speed of sound, 288.15 K [m/s] | speed of sound, 293.15 K [m/s] | speed of sound, 298.15 K [m/s] | speed of sound, 303.15 K [m/s]
w1 = 0.05 | 992.444 ± 0.17 | 991.727 ± 0.17 | 990.715 ± 0.17 | 989.431 ± 0.17 | 987.905 ± 0.17 | 1501.2 ± 0.82 | 1514.5 ± 0.83 | 1526.2 ± 0.83 | 1536.2 ± 0.84 | 1544.7 ± 0.84
w1 = 0.1 | 987.274 ± 0.19 | 986.285 ± 0.2 | 985.011 ± 0.2 | 983.475 ± 0.2 | 981.701 ± 0.2 | 1547.4 ± 0.84 | 1555.6 ± 0.84 | 1562.4 ± 0.85 | 1568 ± 0.85 | 1572.2 ± 0.85
w1 = 0.15 | 983.045 ± 0.21 | 981.663 ± 0.22 | 980.011 ± 0.22 | 978.117 ± 0.22 | 976.004 ± 0.22 | 1584 ± 0.86 | 1586.5 ± 0.86 | 1588.1 ± 0.86 | 1588.6 ± 0.86 | 1588.1 ± 0.85
